Measurements taken from publication PMC9554092, “Self-assembled peptide-paclitaxel nanoparticles for enhancing therapeutic efficacy in colorectal cancer” (Frontiers in Bioengineering and Biotechnology, 2022).

Columns and labels:
[1] = system: HCT116 cells; experiment: Cell apoptosis, Annexin V-Alexa Fluor488/PI flow cytometry; assay type: cell-based, human; settings: HCT116, PTX concentration 5 μg/ml, 48 h, representative result
Method: HCT116 cells were seeded in six-well plates at a density of 1 × 10^4 cells per well and incubated at 37°C until a confluence of 80%. The cells were treated with PTX, Rev-PTX NPs, LPK-PTX NPs at normalized PTX concentration of 5 μg/ml at 37°C for 48 h. Then the cells were trypsinzed, washed, and stained with Annexin V-Alexa Fluor488/PI according to manufacturer’s protocol (Life Technologies, United States). The cell apoptosis was monitored by flow cytometry (BD, CA, United States) and the apoptotic percentage of three independent experiments was analyzed.

[2] = system: colorectal cancer patient-derived xenografts (PDX); experiment: In vivo therapeutic efficacy in CRC patient-derived xenograft (PDX) model; settings: CRC PDX mice
Method: (§1) The therapeutic efficacy of was evaluated in PDX mice model. When the tumor volume reached about 100 mm3, mice were randomly assigned into four groups (six mice per group) and intravenously administered with DMSO, free PTX, Rev-PTX NPs and LPK-PTX NPs respectively at an equivalent dose of 0.8 mg/kg PTX every 3 days. Total mice body weights and tumor sizes were recorded every 3 days. At the end of the observation, tumors and major organs including heart, liver, spleen, lung, colon and kidney were isolated, […] and subjected to hematoxylin and eosin (H&E) and Ki-67 staining using standard protocols for histopathological analysis.

[3] = Systemic toxicity in the PDX model (body weight, H&E of major organs); assay type: in vivo; settings: PDX mice
Method: as §1

Compound: CC(=O)O[C@H]1C(=O)[C@@]2(C)[C@H]([C@H](OC(=O)c3ccccc3)[C@]3(O)C[C@H](OC(=O)[C@H](O)[C@@H](NC(=O)c4ccccc4)c4ccccc4)C(C)=C1C3(C)C)[C@]1(OC(C)=O)CO[C@@H]1C[C@@H]2O [PTX, Paclitaxel]
- early plus late apoptosis (Q3 + Q2) [1]: 44.8%
- Ki-67 staining of tumor tissue [2]: numerous Ki-67-positive cells
- colon histology (HE) [3]: severe crypt destruction
- HE-stained sections of colon, lung and liver ([3]; 0.8 mg/kg PTX equivalent i.v. every 3 days): serious damages
